The text below walks through data of paper PMC3108859 (Toxicology and applied pharmacology, 2009).

In data set [1] the test system is rat hepatocyte-Kupffer cell co-culture. Particulars: ref Tukov et al., 2006; cited from earlier work.
The test system of data set [2] is primary human hepatocytes. Kind of data set: Quantitative sub-lethal hepatotoxicity imaging assays. The data set is classed as cell-based. Particulars: absence of cytokines, 24 or 48 hours.
The test system of data set [3] is primary human hepatocytes. The data set is classed as cell-based. The settings on record: no cytokines, 24 hr, doses less than each drug's own 100*Cmax.
Data set [4] relates to primary human hepatocytes. Format: cell-based. Particulars: 24 hours post-treatment.

Structures are written as SMILES. Entries after “also recorded” stand apart in the source; their conditions may differ.

In the case of `CN(C)CCCN1c2ccccc2Sc2ccc(Cl)cc21` [chlorpromazine], in data set [1], the “synergistic induction of hepatocellular death following LPS treatment” value is on record as “synergistic induction of hepatocellular death following LPS treatment”.
Regarding `CC[C@H]1OC(=O)[C@H](C)[C@@H](O[C@H]2C[C@@](C)(OC)[C@@H](O)[C@H](C)O2)[C@H](C)[C@@H](O[C@@H]2O[C@H](C)C[C@H](N(C)C)[C@H]2O)[C@](C)(OC)C[C@@H](C)C(=O)[C@H](C)[C@@H](O)[C@]1(C)O` [clarithromycin], the “drug-induced sub-lethal hepatocyte injuries (lipid content, ROS, MtMP, GSH depletion)” value in data set [2] is “numerous sub-lethal hepatotoxicities”.
Turning to `CCc1nn(CCCN2CCN(c3cccc(Cl)c3)CC2)c(=O)n1CCOc1ccccc1` [nefazodone], the “drug-induced sub-lethal hepatocyte injuries (lipid content, ROS, MtMP, GSH depletion)” value in data set [2] is “numerous sub-lethal hepatotoxicities”.
Turning to `C=C[C@H]1C[N@@]2CC[C@H]1C[C@H]2[C@H](O)c1ccnc2ccc(OC)cc12` [quinine], in data set [3], the “drug-only hepatotoxicity (greater than two-fold increase in LDH release)” value is recorded as “induced significant drug-only hepatotoxicity”.
As for `CC[C@H]1OC(=O)[C@H](C)C(=O)[C@H](C)[C@@H](O[C@@H]2O[C@H](C)C[C@H](N(C)C)[C@H]2O)[C@](C)(OC)C[C@@H](C)C(=O)[C@H](C)[C@H]2N(CCCCn3cnc(-c4cccnc4)c3)C(=O)O[C@]12C` [telithromycin], the “drug-induced sub-lethal hepatocyte injuries (lipid content, ROS, MtMP, GSH depletion)” value in data set [2] was “only sub-lethal injury induced by both telithromycin and trovafloxacin that was statistically significant was MtMP depletion; also recorded: induced only one type of sub-lethal injury, mitochondrial membrane potential depletion”. In addition, the “cytokine synergy effects by factorial analysis of caspase 3/7 activity” value in data set [4] was “evident, in decreasing magnitude, for LPS and IL-1α but not other treatment variables”.
Regarding `N[C@@H]1[C@H]2CN(c3nc4c(cc3F)c(=O)c(C(=O)O)cn4-c3ccc(F)cc3F)C[C@@H]12` [trovafloxacin], the “drug-induced sub-lethal hepatocyte injuries (lipid content, ROS, MtMP, GSH depletion)” value in data set [2] was “only sub-lethal injury induced by both telithromycin and trovafloxacin that was statistically significant was MtMP depletion; also recorded: induced only one type of sub-lethal injury, mitochondrial membrane potential depletion”. Moreover, the “cytokine synergy effects by factorial analysis of caspase 3/7 activity” value in data set [4] is “evident, in decreasing magnitude, for LPS and IL-1α but not other treatment variables”.
